In PubChem BioAssay AID1963851 (Molecular Pharmacology Branch, DTP, NCI, 2024):

Test system: 188146-221-R-J1-PDC complex spheroid viability
Test: Anticancer human tumor 188146-221-R-J1-PDC patient-derived colon adenocarcinoma cell line growth inhibition [POLQ]
Settings: for IC50: curve of first compound; for viability, T/C: stronger effect = lower value
Procedure, shortened: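 PDC + HUVEC + MSC complex spheroids; POLQ inhibitors ± partner drugs; top conc. at/near clinical Cmax, else 10 microM (SN-38 1 microM), half-log dilutions; 37 degrees C, 5% CO2.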

[1] = second compound 0.0316 µM, first compound 0.0316 µM
[2] = second compound 0.0316 µM, first compound 0.1 µM
[3] = second compound 0.0316 µM, first compound 0.316 µM
[4] = second compound 0.0316 µM, first compound 1 µM
[5] = second compound 0.0316 µM, first compound 3.16 µM
[6] = second compound 0.0316 µM, first compound 10 µM
[7] = second compound 0.1 µM, first compound 0.0316 µM
[8] = second compound 0.1 µM, first compound 0.1 µM
[9] = second compound 0.1 µM, first compound 0.316 µM
[10] = second compound 0.1 µM, first compound 1 µM
[11] = second compound 0.1 µM, first compound 3.16 µM
[12] = second compound 0.1 µM, first compound 10 µM
[13] = second compound 0.316 µM, first compound 0.0316 µM
[14] = second compound 0.316 µM, first compound 0.1 µM
[15] = second compound 0.316 µM, first compound 0.316 µM
[16] = second compound 0.316 µM, first compound 1 µM
[17] = second compound 0.316 µM, first compound 3.16 µM
[18] = second compound 0.316 µM, first compound 10 µM
[19] = second compound 1 µM, first compound 0.0316 µM
[20] = second compound 1 µM, first compound 0.1 µM
[21] = second compound 1 µM, first compound 0.316 µM
[22] = second compound 1 µM, first compound 1 µM
[23] = second compound 1 µM, first compound 3.16 µM
[24] = second compound 1 µM, first compound 10 µM
[25] = second compound 3.16 µM, first compound 0.0316 µM
[26] = second compound 3.16 µM, first compound 0.1 µM
[27] = second compound 3.16 µM, first compound 0.316 µM
[28] = second compound 3.16 µM, first compound 1 µM
[29] = second compound 3.16 µM, first compound 3.16 µM
[30] = second compound 3.16 µM, first compound 10 µM
[31] = second compound 10 µM, first compound 0.0316 µM
[32] = second compound 10 µM, first compound 0.1 µM
[33] = second compound 10 µM, first compound 0.316 µM
[34] = second compound 10 µM, first compound 1 µM
[35] = second compound 10 µM, first compound 3.16 µM
[36] = second compound 10 µM, first compound 10 µM
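Note: spheroids exposed to compounds for seven days.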
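Throughout, for viability, T/C: 100% = DMSO vehicle control viability.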

For `COc1ccc([C@@H](O)c2cc(-c3ncnc4cc(N5CCOCC5)ccc34)c(F)cc2Cl)nn1` + COC1C(OC(N)=O)C(O)C(Oc2ccc3c(O)c(NC(=O)c4ccc(O)c(CC=C(C)C)c4)c(=O)oc3c2C)OC1(C)C, the IC50 (second compound 0.0316 µM) was 4.19 µM, the IC50 (second compound 0.1 µM) was 5.77 µM and the IC50 (second compound 0.316 µM) was 4.27 µM. For the same compound, the IC50 (second compound 1 µM) was 5.01 µM, the IC50 (second compound 3.16 µM) was 5.75 µM and the IC50 (second compound 10 µM) was 5.36 µM. It also gave a viability, T/C [1] of 105%, a viability, T/C [2] of 95.4% and a viability, T/C [3] of 81.4%. For the same compound, the viability, T/C [4] was 76.8%, the viability, T/C [5] was 61.2% and the viability, T/C [6] was 27.1%. For the same compound, the viability, T/C [7] was 92.8%, the viability, T/C [8] was 89.3% and the viability, T/C [9] was 96.2%. It also gave a viability, T/C [10] of 84.6%, a viability, T/C [11] of 65.3% and a viability, T/C [12] of 36.3%. The viability, T/C [13] was 107%, the viability, T/C [14] was 91.3% and the viability, T/C [15] was 102%. For the same compound, the viability, T/C [16] was 83.4%, the viability, T/C [17] was 58.7% and the viability, T/C [18] was 26.2%. The viability, T/C [19] was 96%, the viability, T/C [20] was 96.9% and the viability, T/C [21] was 97.5%. For the same compound, the viability, T/C [22] was 83.2%, the viability, T/C [23] was 65.3% and the viability, T/C [24] was 28.1%. It also gave a viability, T/C [25] of 108%, a viability, T/C [26] of 95.8% and a viability, T/C [27] of 97.8%. For the same compound, the viability, T/C [28] was 84.3%, the viability, T/C [29] was 72.1% and the viability, T/C [30] was 31.4%. The viability, T/C [31] was 108%, the viability, T/C [32] was 84.5% and the viability, T/C [33] was 113%. The viability, T/C [34] was 63.4%, the viability, T/C [35] was 75.7% and the viability, T/C [36] was 30%.

`CCCS(=O)(=O)Nc1ccc(F)c(C(=O)c2c[nH]c3ncc(-c4ccc(Cl)cc4)cc23)c1F` + COC1C(OC(N)=O)C(O)C(Oc2ccc3c(O)c(NC(=O)c4ccc(O)c(CC=C(C)C)c4)c(=O)oc3c2C)OC1(C)C was tested, and the IC50 (second compound 0.0316 µM) was 5.54 µM, the IC50 (second compound 0.1 µM) was 5.87 µM and the IC50 (second compound 0.316 µM) was 4.88 µM. The IC50 (second compound 1 µM) was 5.62 µM, the IC50 (second compound 3.16 µM) was 7.78 µM and the IC50 (second compound 10 µM) was 5.25 µM. The viability, T/C [1] was 106%, the viability, T/C [2] was 92% and the viability, T/C [3] was 77.3%. For the same compound, the viability, T/C [4] was 76.3%, the viability, T/C [5] was 79.8% and the viability, T/C [6] was 27.5%. The viability, T/C [7] was 110%, the viability, T/C [8] was 102% and the viability, T/C [9] was 89%. For the same compound, the viability, T/C [10] was 89.8%, the viability, T/C [11] was 76.9% and the viability, T/C [12] was 29.7%. For the same compound, the viability, T/C [13] was 100%, the viability, T/C [14] was 89.5% and the viability, T/C [15] was 94.5%. It also gave a viability, T/C [16] of 79.7%, a viability, T/C [17] of 65.3% and a viability, T/C [18] of 26.8%. It also gave a viability, T/C [19] of 100%, a viability, T/C [20] of 96.2% and a viability, T/C [21] of 85.4%. The viability, T/C [22] was 84.7%, the viability, T/C [23] was 75.1% and the viability, T/C [24] was 27.4%. The viability, T/C [25] was 102%, the viability, T/C [26] was 103% and the viability, T/C [27] was 92.2%. The viability, T/C [28] was 72.3%, the viability, T/C [29] was 80.9% and the viability, T/C [30] was 41.2%. For the same compound, the viability, T/C [31] was 102%, the viability, T/C [32] was 90.2% and the viability, T/C [33] was 96.3%. It also gave a viability, T/C [34] of 78.2%, a viability, T/C [35] of 72.7% and a viability, T/C [36] of 26%.

`COc1cc(C2c3cc4c(cc3C(OC3OC5COC(C)OC5C(O)C3O)C3COC(=O)C23)OCO4)cc(OC)c1O` (stereo unspecified) + Cc1cccc(N(C)C(=O)C2C(O)CCN2c2nc(C)cc(C(F)(F)F)c2C#N)c1 showed an IC50 (second compound 0.0316 µM) of 0.887 µM, an IC50 (second compound 0.1 µM) of 0.789 µM and an IC50 (second compound 0.316 µM) of 0.723 µM. The IC50 (second compound 1 µM) was 0.748 µM, the IC50 (second compound 3.16 µM) was 0.664 µM and the IC50 (second compound 10 µM) was 0.483 µM. It also gave a viability, T/C [1] of 115%, a viability, T/C [2] of 99.9% and a viability, T/C [3] of 77.3%. It also gave a viability, T/C [4] of 47.6%, a viability, T/C [5] of 27.5% and a viability, T/C [6] of 25.9%. For the same compound, the viability, T/C [7] was 111%, the viability, T/C [8] was 99.2% and the viability, T/C [9] was 77.8%. For the same compound, the viability, T/C [10] was 43.5%, the viability, T/C [11] was 25.1% and the viability, T/C [12] was 28.3%. It also gave a viability, T/C [13] of 108%, a viability, T/C [14] of 102% and a viability, T/C [15] of 71.7%. It also gave a viability, T/C [16] of 43%, a viability, T/C [17] of 26.4% and a viability, T/C [18] of 28.7%. It also gave a viability, T/C [19] of 108%, a viability, T/C [20] of 104% and a viability, T/C [21] of 70.5%. It also gave a viability, T/C [22] of 45.6%, a viability, T/C [23] of 27.2% and a viability, T/C [24] of 30.8%. For the same compound, the viability, T/C [25] was 101%, the viability, T/C [26] was 103% and the viability, T/C [27] was 70.1%. The viability, T/C [28] was 40.6%, the viability, T/C [29] was 29.4% and the viability, T/C [30] was 31.1%. It also gave a viability, T/C [31] of 93.1%, a viability, T/C [32] of 79.6% and a viability, T/C [33] of 61.2%. For the same compound, the viability, T/C [34] was 32.4%, the viability, T/C [35] was 29.1% and the viability, T/C [36] was 32.8%.
